Where two headings read alike, the source gives them in different places.
Assays:
Assay in all cases: cell-based
hNav1.7 = hNav1.7 (Homo sapiens, UniProt Q15858); format: cell-based
hNav1.5 = hNav1.5 (Homo sapiens, UniProt Q14524)
hNav1.3 = hNav1.3 (Homo sapiens, UniProt Q9NY46); details: IonWorks Quattro, use-dependent protocol, hNav1.3; read-out: IWQ Use Nav1.3
[1] = IonWorks Quattro, use-dependent protocol, hNav1.7, read-out: IWQ Use Nav1.7

Chain of hNav1.3 (Q9NY46 whole entry, looked up): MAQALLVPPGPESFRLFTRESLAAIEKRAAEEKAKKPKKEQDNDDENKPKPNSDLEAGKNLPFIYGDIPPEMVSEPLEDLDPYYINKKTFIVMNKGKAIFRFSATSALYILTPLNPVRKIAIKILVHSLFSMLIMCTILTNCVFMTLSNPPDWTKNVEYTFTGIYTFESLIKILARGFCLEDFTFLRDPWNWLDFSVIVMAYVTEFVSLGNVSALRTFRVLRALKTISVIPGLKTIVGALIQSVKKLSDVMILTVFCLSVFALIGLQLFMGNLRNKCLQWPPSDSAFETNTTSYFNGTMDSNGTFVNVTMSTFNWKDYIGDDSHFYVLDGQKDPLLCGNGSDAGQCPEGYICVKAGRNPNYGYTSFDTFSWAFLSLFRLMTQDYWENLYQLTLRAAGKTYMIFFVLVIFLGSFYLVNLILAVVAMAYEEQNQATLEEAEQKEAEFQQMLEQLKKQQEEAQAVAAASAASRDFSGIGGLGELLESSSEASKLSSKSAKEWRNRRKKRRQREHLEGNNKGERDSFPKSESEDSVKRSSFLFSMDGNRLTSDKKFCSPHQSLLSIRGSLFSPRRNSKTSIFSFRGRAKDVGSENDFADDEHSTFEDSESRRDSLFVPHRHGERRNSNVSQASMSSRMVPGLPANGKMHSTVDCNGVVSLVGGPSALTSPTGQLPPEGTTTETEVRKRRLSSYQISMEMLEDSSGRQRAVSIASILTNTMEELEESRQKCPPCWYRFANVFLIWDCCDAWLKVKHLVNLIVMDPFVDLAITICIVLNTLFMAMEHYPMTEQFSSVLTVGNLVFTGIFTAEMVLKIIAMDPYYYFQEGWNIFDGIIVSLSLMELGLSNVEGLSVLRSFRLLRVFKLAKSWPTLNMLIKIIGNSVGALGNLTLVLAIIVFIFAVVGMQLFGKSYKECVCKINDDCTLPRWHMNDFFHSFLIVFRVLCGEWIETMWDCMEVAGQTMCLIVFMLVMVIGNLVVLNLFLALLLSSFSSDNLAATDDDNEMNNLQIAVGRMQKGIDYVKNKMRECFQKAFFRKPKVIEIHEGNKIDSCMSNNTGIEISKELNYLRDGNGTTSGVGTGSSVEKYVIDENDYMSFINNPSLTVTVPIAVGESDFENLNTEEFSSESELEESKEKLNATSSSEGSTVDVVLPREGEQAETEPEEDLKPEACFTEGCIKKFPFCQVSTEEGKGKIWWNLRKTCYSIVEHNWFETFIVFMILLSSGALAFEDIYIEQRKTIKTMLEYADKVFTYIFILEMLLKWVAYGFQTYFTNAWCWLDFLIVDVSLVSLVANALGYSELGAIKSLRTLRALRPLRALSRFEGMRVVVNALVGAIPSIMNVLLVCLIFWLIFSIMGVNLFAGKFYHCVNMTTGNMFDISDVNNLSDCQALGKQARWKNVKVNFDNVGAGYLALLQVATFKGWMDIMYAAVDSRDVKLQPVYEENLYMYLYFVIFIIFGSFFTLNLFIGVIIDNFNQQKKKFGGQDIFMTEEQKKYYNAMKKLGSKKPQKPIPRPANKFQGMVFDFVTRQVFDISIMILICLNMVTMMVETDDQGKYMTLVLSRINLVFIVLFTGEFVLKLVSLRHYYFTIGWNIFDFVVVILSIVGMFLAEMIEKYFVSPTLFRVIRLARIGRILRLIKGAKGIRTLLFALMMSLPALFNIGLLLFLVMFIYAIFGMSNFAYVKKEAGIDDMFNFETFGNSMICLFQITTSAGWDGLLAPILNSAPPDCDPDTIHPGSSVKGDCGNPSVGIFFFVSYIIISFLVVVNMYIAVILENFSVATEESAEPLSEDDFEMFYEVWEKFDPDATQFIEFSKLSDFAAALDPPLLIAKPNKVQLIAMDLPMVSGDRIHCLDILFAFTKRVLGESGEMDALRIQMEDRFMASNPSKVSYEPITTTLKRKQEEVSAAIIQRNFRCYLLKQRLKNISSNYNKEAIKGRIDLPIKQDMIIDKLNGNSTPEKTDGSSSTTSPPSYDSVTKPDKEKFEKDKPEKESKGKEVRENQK
Chain of hNav1.5 (Q14524 whole entry, looked up): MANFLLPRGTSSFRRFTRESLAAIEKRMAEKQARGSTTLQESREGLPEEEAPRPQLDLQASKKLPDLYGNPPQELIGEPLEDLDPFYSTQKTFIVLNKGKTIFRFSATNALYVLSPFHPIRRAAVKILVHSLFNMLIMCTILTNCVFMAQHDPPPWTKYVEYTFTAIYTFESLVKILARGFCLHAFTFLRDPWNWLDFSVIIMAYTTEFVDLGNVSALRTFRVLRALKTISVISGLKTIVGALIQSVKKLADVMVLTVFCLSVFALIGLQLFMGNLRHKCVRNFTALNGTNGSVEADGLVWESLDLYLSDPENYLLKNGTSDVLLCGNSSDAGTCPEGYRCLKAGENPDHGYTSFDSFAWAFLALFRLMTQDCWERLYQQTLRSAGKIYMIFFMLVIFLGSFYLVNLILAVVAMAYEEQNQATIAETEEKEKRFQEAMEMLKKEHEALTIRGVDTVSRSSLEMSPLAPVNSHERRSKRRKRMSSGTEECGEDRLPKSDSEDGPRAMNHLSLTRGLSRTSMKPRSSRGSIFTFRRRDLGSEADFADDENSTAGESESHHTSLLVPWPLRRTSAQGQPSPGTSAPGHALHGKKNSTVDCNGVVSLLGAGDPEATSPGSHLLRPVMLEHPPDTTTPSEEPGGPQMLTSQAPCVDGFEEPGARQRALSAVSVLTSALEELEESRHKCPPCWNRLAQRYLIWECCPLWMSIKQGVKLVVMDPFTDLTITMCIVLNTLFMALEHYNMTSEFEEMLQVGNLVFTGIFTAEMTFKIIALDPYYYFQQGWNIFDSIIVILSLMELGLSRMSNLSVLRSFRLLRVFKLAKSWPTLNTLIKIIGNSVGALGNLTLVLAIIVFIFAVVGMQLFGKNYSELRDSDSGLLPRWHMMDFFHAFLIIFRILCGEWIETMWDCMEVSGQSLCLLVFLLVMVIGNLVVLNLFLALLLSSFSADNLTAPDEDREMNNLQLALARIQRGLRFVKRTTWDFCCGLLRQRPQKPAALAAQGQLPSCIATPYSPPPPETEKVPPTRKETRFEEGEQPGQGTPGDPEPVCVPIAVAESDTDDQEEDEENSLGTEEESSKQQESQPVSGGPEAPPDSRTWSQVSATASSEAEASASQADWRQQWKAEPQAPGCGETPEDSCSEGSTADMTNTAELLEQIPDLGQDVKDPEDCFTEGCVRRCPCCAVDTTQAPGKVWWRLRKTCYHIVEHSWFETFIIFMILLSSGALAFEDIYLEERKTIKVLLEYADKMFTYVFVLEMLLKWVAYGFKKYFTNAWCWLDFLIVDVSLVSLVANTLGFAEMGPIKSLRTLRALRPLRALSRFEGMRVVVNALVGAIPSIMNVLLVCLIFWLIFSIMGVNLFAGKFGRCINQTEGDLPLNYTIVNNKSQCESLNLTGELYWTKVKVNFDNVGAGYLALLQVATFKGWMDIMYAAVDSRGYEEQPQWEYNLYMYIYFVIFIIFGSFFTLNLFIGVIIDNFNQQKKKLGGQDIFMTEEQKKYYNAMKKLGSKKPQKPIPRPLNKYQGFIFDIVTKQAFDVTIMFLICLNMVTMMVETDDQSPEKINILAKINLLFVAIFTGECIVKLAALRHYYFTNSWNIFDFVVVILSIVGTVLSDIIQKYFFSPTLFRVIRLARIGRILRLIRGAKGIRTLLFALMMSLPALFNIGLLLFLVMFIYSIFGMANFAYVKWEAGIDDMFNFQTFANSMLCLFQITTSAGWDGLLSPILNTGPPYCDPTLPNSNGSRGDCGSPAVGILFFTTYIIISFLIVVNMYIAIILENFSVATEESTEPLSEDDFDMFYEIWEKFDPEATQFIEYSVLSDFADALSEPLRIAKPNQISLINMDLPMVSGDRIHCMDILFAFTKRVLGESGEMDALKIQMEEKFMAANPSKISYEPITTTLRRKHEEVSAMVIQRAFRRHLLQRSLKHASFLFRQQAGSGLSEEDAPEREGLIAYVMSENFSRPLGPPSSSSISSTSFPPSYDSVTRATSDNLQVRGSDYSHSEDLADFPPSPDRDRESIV

Structure (SMILES)	IC50 (hNav1.7; [1])	IC50 (hNav1.5; IWQ Use Nav1.5)	IC50 (hNav1.3)	IC50 (hNav1.7)	IC50 (hNav1.5; IonWorks Quattro, use-dependent protocol, hNav1.5, read-out: IWQ Use Nav1.5)
CC[C@H](C)[C@@H]1NC(=O)[C@@H]2CSSC[C@@H]3NC(=O)[C@H](C(C)C)NC(=O)[C@H](CC(C)C)NC(=O)[C@H](CC(N)=O)NC(=O)[C@@H]4CCCN4C(=O)[C@H](CCCNC(=N)N)NC(=O)[C@H](CSSC[C@H](NC(=O)[C@@H](N)CC(=O)O)C(=O)N[C@@H](CC(C)C)C(=O)NCC(=O)N[C@@H](Cc4ccc(C(C)(C)C)cc4)C(=O)N[C@@H](CCSC)C(=O)N[C@@H](CCCNC(=N)N)C(=O)N[C@@H](CCCCN)C(=O)N2)NC(=O)[C@H](CSSC[C@@H](C(=O)N[C@@H](CCCCN)C(=O)N[C@@H](Cc2ccc(O)cc2)C(=O)N[C@H](C(=O)N[C@@H](Cc2ccccc2)C(N)=O)C(C)C)NC(=O)[C@H](Cc2c[nH]c4ccccc24)NC(=O)[C@H](CCCCN)NC(=O)[C@H](Cc2c[nH]cn2)NC(=O)[C@H]([C@@H](C)O)NC(=O)[C@H](CCCNC(=N)N)NC(=O)[C@H](CO)NC3=O)NC(=O)[C@H](CCCCN)NC(=O)[C@H](CC(=O)O)NC(=O)[C@H](CC(N)=O)NC(=O)[C@H](CC(=O)O)NC(=O)[C@@H]2CCCN2C1=O [compound 687]	270 nM	> 5000 nM	130 nM		
CC[C@H](C)[C@@H]1NC(=O)[C@@H]2CSSC[C@@H]3NC(=O)[C@H](C(C)C)NC(=O)[C@H](CC(C)C)NC(=O)[C@H](CC(N)=O)NC(=O)[C@@H]4CCCN4C(=O)[C@H](CCCNC(=N)N)NC(=O)[C@H](CSSC[C@H](NC(=O)[C@@H](N)CC(=O)O)C(=O)N[C@@H](CC(C)C)C(=O)NCC(=O)N(C)[C@@H](CC(C)C)C(=O)N[C@@H](CCSC)C(=O)N[C@@H](CCCNC(=N)N)C(=O)N[C@@H](CCCCN)C(=O)N2)NC(=O)[C@H](CSSC[C@@H](C(=O)N[C@@H](CCCCN)C(=O)N[C@@H](Cc2ccc(O)cc2)C(=O)N[C@H](C(=O)N[C@@H](Cc2ccccc2)C(N)=O)C(C)C)NC(=O)[C@H](Cc2c[nH]c4ccccc24)NC(=O)[C@H](CCCCN)NC(=O)[C@H](Cc2cnc[nH]2)NC(=O)[C@H]([C@@H](C)O)NC(=O)[C@H](CCCNC(=N)N)NC(=O)[C@H](CO)NC3=O)NC(=O)[C@H](CCCCN)NC(=O)[C@H](CC(=O)O)NC(=O)[C@H](CC(N)=O)NC(=O)[C@H](CC(=O)O)NC(=O)[C@@H]2CCCN2C1=O [compound 688]		> 5000 nM	730 nM	290 nM	
CC[C@H](C)[C@@H]1NC(=O)[C@@H]2CSSC[C@@H]3NC(=O)[C@H](C(C)C)NC(=O)[C@H](CC(C)C)NC(=O)[C@H](CC(N)=O)NC(=O)[C@@H]4CCCN4C(=O)[C@H](CCCNC(=N)N)NC(=O)[C@H](CSSC[C@H](NC(=O)[C@@H](N)CC(=O)O)C(=O)N[C@@H](CC(C)C)C(=O)NCC(=O)N[C@@H](Cc4ccccc4Cl)C(=O)N[C@@H](CCSC)C(=O)N[C@@H](CCCNC(=N)N)C(=O)N[C@@H](CCCCN)C(=O)N2)NC(=O)[C@H](CSSC[C@@H](C(=O)N[C@@H](CCCCN)C(=O)N[C@@H](Cc2ccc(O)cc2)C(=O)N[C@H](C(=O)N[C@@H](Cc2ccccc2)C(N)=O)C(C)C)NC(=O)[C@H](Cc2c[nH]c4ccccc24)NC(=O)[C@H](CCCCN)NC(=O)[C@H](Cc2c[nH]cn2)NC(=O)[C@H]([C@@H](C)O)NC(=O)[C@H](CCCNC(=N)N)NC(=O)[C@H](CO)NC3=O)NC(=O)[C@H](CCCCN)NC(=O)[C@H](CC(=O)O)NC(=O)[C@H](CC(N)=O)NC(=O)[C@H](CC(=O)O)NC(=O)[C@@H]2CCCN2C1=O [compound 689]	130 nM		110 nM		> 5000 nM
